Test results: patent US20260014235A1, “METHODS OF PROMOTING REMYELINATION” (Mallinckrodt Pharmaceuticals Ireland Limited, priority 2019, published 2026)
Marks after values point to notes of the source that are not given here.

System: mouse model of cuprizone demylelination
Assay: Remyelination in gray matter (hippocampus) via quantification of PLP, cuprizone/rapamycin mouse model
Type: in vivo, C57BL/6 mice
Settings: 6 weeks treatment after 12 weeks cuprizone co-administered with rapamycin, RCI 10 U/kg
Description: The hypothesis that repository corticotropin injection (RCI) accelerates remyelination in a mouse model of cuprizone demylelination was tested. C57BL/6 mice were fed 0.3% cuprizone co-administered with rapamycin for 12 weeks to induce demyelination and inhibit spontaneous remyelination. […] Mice were treated for another 6 weeks with RCI, triiodothyronine (T3, positive control), or vehicle (negative control). Remyelination was assayed in gray matter (hippocampus) via quantification of myelin proteolipid protein (PLP) and in white matter (corpus callosum) via p-Phenylenediamine (PPD) staining. […] Of note-increased remyelination was not observed at higher doses of RCI in this rodent model (data not shown).

N[C@@H](Cc1cc(I)c(Oc2ccc(O)c(I)c2)c(I)c1)C(=O)O [Positive Control, triiodothyronine]
Mean PLP (% Area Covered): 40.8** % Area Covered
